Test results: a melting point compilation (Tetko et al.; mined from patent text by program, amines drawn as free bases though some values may be those of a salt)

Row | melting point | Structure (SMILES)
1 | 76 to 80 °C | Cn1ccnc1C1(CCCCc2ccc(N3C(=O)c4ccccc4C3=O)cc2)c2ccccc2-c2ccccc21
2 | 229 to 233 °C | CS(=O)(=O)Nn1c(=O)[nH]c2cc(C(F)(F)F)c(-n3cnc(Br)c3)cc2c1=O
3 | 188 to 190 °C | COc1ccc(Oc2c(Br)cc(C=O)cc2[N+](=O)[O-])cc1Cc1ccc(=O)[nH]n1
4 | 134 to 135 °C | O=C1CC2CCSc3sccc3C2=NN1c1ccc(Cl)cc1 (stereo not given)
5 | 163 to 168 °C | O=c1c2c(Cl)cc(Cl)cc2n(Cc2ccccc2)c(=O)n1Cc1ccc(Br)cc1
6 | 208 to 210 °C | COCCNC(=O)c1c(O)c2ccccc2n(C)c1=N
7 | 48 to 50.5 °C | C=CCC(O)CCCCCCCCCCCCCCCCC (stereo not given)
8 | 94 to 94.5 °C | NC(=O)N(O)Cc1ccc2c(c1)CCN2CCCc1ccccc1
9 | 137 to 142 °C | Nc1ccc(Nc2ccc(CCc3ccc(Cl)c(Cl)c3)cc2)c(C(=O)O)c1
10 | 121 to 122 °C | COC(=O)c1nc(SC)n(-c2ccccc2)c1C(=O)OC
11 | 67 °C | C=C(C)C(=O)OCCCc1ccc(-c2ccc(-c3ccc(OC(=O)C(=C)C)cc3F)c(F)c2)cc1
12 | 162 to 163 °C | Cc1ccc(C(=O)NC(NC(=O)Nc2cccnc2)C(Cl)(Cl)Cl)cc1 (stereo not given)
13 | 290 °C | O=C(c1cccs1)c1cnn2c(-c3cccc(-c4nnn[nH]4)c3)ccnc12
14 | 206 to 207 °C | COc1cc2cc(-c3ccc(OCC(O)CNC(C)C)cc3)n(C)c(=O)c2cc1OC (stereo not given)
15 | 146 to 147 °C | COc1ccc(Cc2nccc3ccccc23)cc1OC
16 | 270 to 271 °C | Cc1ccnc2c1n(C(C)C)c(=O)n2-c1ccc(Oc2nc3cccnc3n2C)cc1
17 | 211 to 213 °C | COc1ccc(-c2cc3cc(F)c(F)cc3[nH]2)cc1NS(=O)(=O)c1cccs1
18 | 122 to 123 °C | CCOC1CC(n2cc(CC)c(=O)[nH]c2=O)OC1CN (stereo not given)
19 | 202 to 206 °C | CN(Cc1ccc(-c2ccc(OCC#N)c(Br)c2)cc1)C(=O)c1cn(C)c2ccccc12

Row | melting point | Structure (SMILES)
20 | 194 to 196 °C | CCC1c2cccn2-c2cc(O)c(F)cc2N1S(=O)(=O)c1ccc(O)c(C)c1 (stereo not given)
21 | > 270 °C | NC(=O)c1ccc(NC(=O)c2ccccc2SSc2ccccc2C(=O)Nc2ccc(C(N)=O)cc2)cc1
22 | 196 to 199 °C | O=C(Oc1ccccc1)c1ncn2c1CN(C(=O)N1CCCC1)c1ccccc1-2
23 | 130 to 132 °C | CCCC(C)(C)NC(=O)NC1=CC(=O)OC1
24 | 128 to 130 °C | Cc1c(Br)c2cnnc(OCc3ccc(F)cc3)c2n1Cc1ccccc1
25 | 258 °C | Cc1sc(NC=O)c(C#N)c1Cl
26 | 249 to 250 °C | CN1CCC(c2c(O)cc(O)c3c(=O)cc(-c4ccccc4Cl)oc23)C1Cn1ccnc1 (stereo not given)
27 | > 200 °C | FC(F)(F)c1cccc(-c2snnc2S)c1
28 | 114 to 116 °C | N#CC1Sc2ccccc2-c2ccccc21 (stereo not given)
29 | 127 to 129 °C | CN(C)C(=O)Cc1cc(Br)ccc1I
30 | 169 to 171 °C | CCCn1c(=O)c2c(NC)n(C(C)=O)nc2n(Cc2cccc(Cl)c2)c1=O
31 | 157 to 158 °C | CCCCc1ncc(/C=C2\C(=O)N(CC(=O)OCC)c3c(OC)cccc32)n1Cc1ccc(C(=O)OC)cc1
32 | 104 to 105 °C | CS(=O)c1nc(-c2ccccc2)cs1 (stereo not given)
33 | 180 to 183 °C | CC(=O)OC1C(C)=C(C)C(=O)N1c1nc2ccc(F)cc2s1 (stereo not given)
34 | 60 to 62 °C | CS(=O)(=O)NCC1CC2C=CC1C2 (stereo not given)
35 | 233 to 234 °C | NC(=O)NN=Cc1ccc(Oc2ccc(F)cc2)c(F)c1
36 | > 35 °C | O=c1[nH]c2sc3c(F)cccc3c2[nH]c1=O
37 | 133 °C | CCCc1ccc(-n2cnc(-c3ccc(C#N)cc3)c2)cc1
38 | 170 to 172 °C | COc1ccc2nc(-c3cc(F)c(OC)c(F)c3)cc(Br)c2c1

Row | Structure (SMILES) | melting point
39 | Cn1nnnc1CN1C2CCC1CC(Oc1ccc(Cl)c(Cl)c1)C2 (stereo not given) | 119 to 120 °C
40 | CC(C)(C)c1ccc(S(=O)(=O)C(CCl)Sc2ccccc2)cc1 (stereo not given) | 104 to 106 °C
